We go through one substance from patent publication US20240066152A1, “CONTRAST AGENT FOR DETECTING CARTILAGE DAMAGE AND METHOD AND PROGRAM FOR EXAMINING CARTILAGE DAMAGE USING SAID CONTRAST AGENT” (NATIONAL UNIVERSITY CORPORATION HOKKAIDO UNIVERSITY, priority 2020, published 2024).

This test relates to articular cartilage of the rabbit knee joint (both femoral condyles), ACLT model. Description: MRI evaluation of articular cartilage damage in the anterior cruciate ligament transection (ACLT) model using ^17O-labeled water. The test is classed as in vivo, Japanese white rabbits. How it is done:
An ACLT model was created using 14-week-old male Japanese white rabbits to induce cartilage damage in the knee joint. The rabbits were anesthetized intravenously with pentobarbital (30 mg/kg) and ketamine (50 mg/kg), followed by inhalation anesthesia with isoflurane (1 to 4%) for maintenance anesthesia. The anterior surface of the knee joint on the operative side was shaved, was disinfected with povidone-iodine, and then an analgesic (buprenorphine 0.02 mg/kg) was subcutaneously administered by injection. Skin incision of about 5 cm was placed on the medial side of the patella, and the joint capsule was incised in a similar position. The patella was dislocated laterally, and the knee joint was deeply flexed to expose the anterior cruciate ligament of the femoral intercondylar part, which was separated using a No. 11 scalpel. After washing the inside of the joint with a physiological saline solution, the joint capsule and the skin were sutured using 3-0 nylon thread. Postoperatively, euthanasia was performed if wound infection was observed or in the case of an inability to stand.
It has been reported that in the ACLT model, degeneration of cartilage surface begins at 4 weeks postoperatively and occurs in the entire cartilage layer from 8 weeks postoperatively (Makoto Yoshioka et al. Characterization of a model of osteoarthritis in the rabbit knee. Osteoarthritis and Cartilage, 1996, 4 (2): 87-98), and thus five rabbits were slaughtered and euthanized with pentobarbital (200 mg/kg) each at 4 weeks and 8 weeks postoperatively, and cartilage damage was evaluated by MRI and macroscopically and histologically.
MRI Imaging Using a 3T-MRI apparatus (MAGNETOM Prisma, Siemens), imaging of the rabbit knee joint on the operative side was performed. The affected rabbit limb was disarticulated at the thigh and was fixed at the knee joint extension to avoid the influence of body movement during imaging. A 24G Surflo needle was inserted from the anterior surface of the knee joint through the patellar tendon and was indwelled in the joint. […]

For the substance ^17O-labeled water, the “change over time in ^17O concentration in ROI 1 and ROI 2 (damaged cartilage region)” value (immediately after administration (fourth imaging), calculated from average T2-weighted signal values in each ROI, 4 weeks postoperatively) is listed as “showed an increase in the ^17O concentration”. In addition, the “^17O concentration (^17O map calculated from signal values of T2-weighted image)” value (representative case 4 weeks postoperatively, about 11 minutes after administration (sixth imaging), 0.5 ml saline containing 20-mol % ^17O-labeled water into knee joint of disarticulated limb) is on record as “higher in the region where cartilage damage was observed”. For the same substance, the “change over time in ^17O concentration in ROI 3 and ROI 4 (normal cartilage region)” value (with administration of ^17O-labeled water, calculated from average T2-weighted signal values in each ROI, 4 weeks postoperatively) is on record as “showed no tendency of an increase in the ^17O concentration”.
